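Interpolation was linear, between the two tested concentrations surrounding the appropriate level; five concentrations were tested over 48 hours in 96-well plates. GI50 = concentration required for 50% inhibition of growth.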 The source made the active and inactive calls. Rule as the data show it: active = GI50 up to about 1.1 µM and inactive = higher.
Assays:
Assay in all cases: NCI-60 cell line screen, 48 h
CAKI-1 = system: CAKI-1
CCRF-CEM = system: CCRF-CEM
HOP-18 = system: HOP-18
LXFL 529 = system: LXFL 529
SF-539 = system: SF-539
NCI-H226 = system: NCI-H226
RXF 393 = system: RXF 393
HOP-62 = system: HOP-62
SK-MEL-28 = system: SK-MEL-28
786-0 = system: 786-0
M14 = system: M14
KM12 = system: KM12
UACC-257 = system: UACC-257
SNB-75 = system: SNB-75
RPMI-8226 = system: RPMI-8226
SNB-78 = system: SNB-78
DLD-1 = system: DLD-1
SW-620 = system: SW-620
ACHN = system: ACHN
SR = system: SR
NCI-H522 = system: NCI-H522
HCC 2998 = system: HCC 2998
DMS-273 = system: DMS-273
SF-295 = system: SF-295
HCT-15 = system: HCT-15
XF498 = system: XF498
HT-29 = system: HT-29
A498 = system: A498
NCI-H23 = system: NCI-H23
K562 = system: K562
NCI-H460 = system: NCI-H460
Malme-3M = system: Malme-3M
SK-MEL-5 = system: SK-MEL-5
EKVX = system: EKVX
LOX IMVI = system: LOX IMVI
SNB-19 = system: SNB-19
HL-60 = system: HL-60
U-251 = system: U-251
DMS-114 = system: DMS-114
HOP-92 = system: HOP-92
HCT-116 = system: HCT-116
OVCAR-8 = system: OVCAR-8
OVCAR-5 = system: OVCAR-5
SK-OV-3 = system: SK-OV-3
COLO 205 = system: COLO 205
UO-31 = system: UO-31
SF-268 = system: SF-268
OVCAR-3 = system: OVCAR-3
OVCAR-4 = system: OVCAR-4
KM-20L2 = system: KM-20L2
IGROV-1 = system: IGROV-1
TK-10 = system: TK-10
UACC-62 = system: UACC-62
SK-MEL-2 = system: SK-MEL-2
SN12C = system: SN12C
A549 = system: A549

Measured: GI50

CCCC(N)C(=O)c1ccccc1 (stereo unspecified)
> 100 µM: HCT-15
inactive: CAKI-1 > 100 µM | CCRF-CEM > 100 µM | HOP-18 > 100 µM | LXFL 529 > 100 µM | SF-539 > 100 µM | NCI-H226 > 100 µM | RXF 393 > 100 µM | HOP-62 > 100 µM | SK-MEL-28 > 100 µM | 786-0 > 100 µM | M14 > 100 µM | KM12 > 100 µM | UACC-257 > 100 µM | SNB-75 > 100 µM | RPMI-8226 > 100 µM | SNB-78 > 100 µM | DLD-1 > 100 µM | SW-620 > 100 µM | ACHN > 100 µM | SR > 100 µM | NCI-H522 > 100 µM | HCC 2998 > 100 µM | DMS-273 > 100 µM | SF-295 > 100 µM | XF498 > 100 µM | HT-29 > 100 µM | A498 > 100 µM | NCI-H23 > 100 µM | K562 > 100 µM | NCI-H460 > 100 µM | Malme-3M > 100 µM | SK-MEL-5 > 100 µM | EKVX > 100 µM | LOX IMVI > 100 µM | SNB-19 > 100 µM | HL-60 > 100 µM | U-251 > 100 µM | DMS-114 > 100 µM | HOP-92 > 100 µM | HCT-116 > 100 µM | OVCAR-8 > 100 µM | OVCAR-5 > 100 µM | SK-OV-3 > 100 µM | COLO 205 > 100 µM | UO-31 > 100 µM | SF-268 > 100 µM | OVCAR-3 > 100 µM | OVCAR-4 > 100 µM | KM-20L2 > 100 µM | IGROV-1 > 100 µM | TK-10 > 100 µM | UACC-62 > 100 µM | SK-MEL-2 > 100 µM | SN12C > 100 µM | A549 > 100 µM

Reference: ChEMBL document CHEMBL1201862, “PubChem BioAssay data set” (2004)
